Structures can show the parent of a compound that is named as a salt. Where two headings read alike, the source gives them in different places.
Assays:
human recombinant DPP-IV = target: T1, human recombinant DPP-IV (Homo sapiens, UniProt P27487); experiment: Inhibition of human recombinant DPP-IV (Gly-Pro-AMC hydrolysis, fluorometric); assay type: biochemical; conditions: human recombinant DPP-IV, 50 μM Gly-Pro-AMC, 30 min at 30° C.
T1 construct: purchased R&D Systems, USA (or produced in-house)
T1 sequence (P27487 whole entry): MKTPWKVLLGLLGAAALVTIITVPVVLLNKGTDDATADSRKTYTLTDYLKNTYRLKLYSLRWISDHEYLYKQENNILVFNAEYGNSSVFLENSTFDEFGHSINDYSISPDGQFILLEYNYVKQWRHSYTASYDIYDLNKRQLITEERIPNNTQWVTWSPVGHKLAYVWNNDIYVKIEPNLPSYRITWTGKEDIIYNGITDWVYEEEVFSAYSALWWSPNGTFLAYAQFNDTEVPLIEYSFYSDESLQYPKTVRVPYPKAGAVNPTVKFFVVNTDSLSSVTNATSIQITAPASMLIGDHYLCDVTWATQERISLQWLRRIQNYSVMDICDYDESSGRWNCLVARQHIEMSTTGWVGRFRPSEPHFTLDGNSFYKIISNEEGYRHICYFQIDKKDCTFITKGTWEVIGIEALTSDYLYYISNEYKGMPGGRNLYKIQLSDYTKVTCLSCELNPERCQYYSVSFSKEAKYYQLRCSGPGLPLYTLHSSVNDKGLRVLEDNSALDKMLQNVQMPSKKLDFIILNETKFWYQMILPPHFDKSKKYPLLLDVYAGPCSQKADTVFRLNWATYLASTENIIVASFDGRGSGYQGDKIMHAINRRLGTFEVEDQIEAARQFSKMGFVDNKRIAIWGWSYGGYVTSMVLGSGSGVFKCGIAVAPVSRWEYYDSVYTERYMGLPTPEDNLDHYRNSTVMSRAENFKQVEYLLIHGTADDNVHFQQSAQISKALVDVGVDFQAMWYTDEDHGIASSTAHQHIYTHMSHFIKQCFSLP
How it was run: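 Enzyme (10 ng) was preincubated 15 min at 30° C. with compound (10 and 100 nM screen; 8 concentrations 0.1-1000 nM) in Tris-HCl pH 7.4, NaCl, KCl, BSA. 50 μM Gly-Pro-AMC was added for 30 min at 30° C. and AMC fluorescence was read (ex 360/em 460 nm). Results are given as % inhibition versus vehicle or as IC50.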

plasma DPP-IV = target: T2, plasma DPP-IV (Rattus norvegicus, UniProt P14740); experiment: Measurement of plasma DPP-IV activity in male Wistar rats after single oral dose; assay type: in vivo; conditions: p.o.; for Plasma DPP-IV Inhibition (%) 4 h / Plasma DPP-IV Inhibition (%) 6 h / Plasma DPP-IV Inhibition (%) 8 h / inhibition at 3 mg/kg: 3 mg/kg; for inhibition at 3 mg/kg / inhibition at 10 mg/kg: rat, po
T2 construct: from tissue; host or cells: EDTA-plasma of male Wistar rats dosed orally
T2 sequence (P14740 37-767 limits assumed): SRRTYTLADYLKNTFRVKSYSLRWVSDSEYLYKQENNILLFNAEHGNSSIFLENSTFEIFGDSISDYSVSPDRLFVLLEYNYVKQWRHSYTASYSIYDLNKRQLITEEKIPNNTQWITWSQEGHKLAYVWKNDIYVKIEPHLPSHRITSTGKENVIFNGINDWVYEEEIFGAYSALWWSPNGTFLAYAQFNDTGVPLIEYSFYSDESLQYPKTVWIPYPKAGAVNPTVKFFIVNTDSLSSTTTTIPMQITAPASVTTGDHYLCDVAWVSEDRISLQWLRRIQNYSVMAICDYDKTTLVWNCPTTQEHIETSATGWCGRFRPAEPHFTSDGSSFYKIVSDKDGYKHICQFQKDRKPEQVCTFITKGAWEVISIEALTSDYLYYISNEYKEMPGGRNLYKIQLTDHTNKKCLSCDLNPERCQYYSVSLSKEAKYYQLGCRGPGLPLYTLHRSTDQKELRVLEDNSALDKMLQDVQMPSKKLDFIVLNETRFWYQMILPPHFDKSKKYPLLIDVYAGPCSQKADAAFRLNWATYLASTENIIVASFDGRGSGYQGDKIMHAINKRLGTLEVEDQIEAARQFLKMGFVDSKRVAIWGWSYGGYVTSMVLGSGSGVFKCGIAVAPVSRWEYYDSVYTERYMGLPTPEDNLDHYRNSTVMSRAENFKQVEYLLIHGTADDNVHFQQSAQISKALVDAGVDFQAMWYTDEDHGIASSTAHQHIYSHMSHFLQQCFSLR
Method: Overnight-fasted male animals were administered either vehicle or single oral doses of compounds. Blood samples were withdrawn from retro-bulbar venous plexus under anesthesia at several time points up to 24 h post-dose. EDTA-plasma was separated and DPP-IV activity was measured using a fluorometric assay. Assays were carried out in 96-well flat-bottom black microwell plates. A typical reaction contained 25 μl plasma, 50 μl of 50 μM substrate (Gly-Pro-AMC) and 25 μl assay buffer (25 mM Tris-HCl, pH 7.4, 140 mM NaCl, 10 mM KCl and 1% BSA) in a total reaction volume of 100 μl. Plasma samples were incubated with the substrate for 30 min at 30° C., following which the fluorescence was measured in a microplate fluorescence redaer (POLARstar Galaxy), with excitation and emission wavelengths set at 360 nm and 460 nm, respectively. Percent inhibition in plasma DPP-IV activity due to compounds was calculated by comparing with plasma from vehicle-treated animals.

C57BL/6J mice = experiment: Oral glucose tolerance test in male C57BL/6J mice; assay type: in vivo; conditions: 3 mg/kg, p.o., oral glucose load 5 g/kg 1 h after compound, glucose AUC 0-120 min vs vehicle
Method: B. Oral Glucose Tolerance Test in Male C57BU6J Mice
Overnight-fasted male […] mice were challenged 1 h, 4 h and 8 h after either vehicle or compound administration with an oral glucose load of 5 g/kg in three different groups of animals. Blood samples for glucose measurement were obtained by tail bleed at predose, before glucose load and at serial time points after the glucose load, to evaluate the efficacy and duration of effect on glucose tolerance test. […] Improvement in glucose tolerance in compound-treated animals was estimated by comparing with vehicle-treated animals.
Table 3 provides data for the antihyperglycemic activity of selected compounds in C57BL/6J mice, as determined by oral glucose tolerance test.

[1] = 4 h post-dose, read-out: Plasma DPP-IV Inhibition (%) 4 h
[2] = 6 h post-dose, read-out: Plasma DPP-IV Inhibition (%) 6 h
[3] = 8 h post-dose, read-out: Plasma DPP-IV Inhibition (%) 8 h

Structure (SMILES)	IC50 (human recombinant DPP-IV)	Plasma DPP-IV Inhibition (%) 4 h (plasma DPP-IV; 4 h post-dose)	Plasma DPP-IV Inhibition (%) 6 h (plasma DPP-IV; 6 h post-dose)	Plasma DPP-IV Inhibition (%) 8 h (plasma DPP-IV; 8 h post-dose)	Improvement in Glucose Tolerance (%) 1 h (C57BL/6J mice)	inhibition at 3 mg/kg (plasma DPP-IV; [1])	inhibition at 3 mg/kg (plasma DPP-IV; [2])	inhibition at 3 mg/kg (plasma DPP-IV; [3])	inhibition at 10 mg/kg (plasma DPP-IV; [1])	inhibition at 10 mg/kg (plasma DPP-IV; [2])	inhibition at 10 mg/kg (plasma DPP-IV; [3])
C#C[C@H]1CC[C@@H](C#N)N1C(=O)[C@@H](N)C1CC2CCC(C1)N2C(=O)c1ccc2c(c1)OCO2.O=C(O)C(F)(F)F (stereo partly drawn) [Compound 67, (2S,5R)-1-{(2S)-2-Amino-2-[8-(benzo[1,3]dioxole-5-carbonyl)-8-aza-bicyclo[3.2.1]oct-3-yl]-exo-ethanoyl}-5-ethynyl-pyrrolidin-2-carbonitrile trifluoroacetic acid salt]	7.68 nM	64%	36%	23%	50%						
N#C[C@@H]1C[C@@H]2C[C@@H]2N1C(=O)[C@@H](N)C1CC2CCC(C1)N2C(=O)c1ccnc(F)c1 (stereo partly drawn) [Compound 28, (1S,3S,5S)-2-{(2S)-2-amino-2-[8-(2-fluoropyridine-4-carbonyl)-8-aza-bicyclo[3.2.1]-oct-3-yl]-exo-ethanoyl}-2-azabicyclo[3.1.0]-hexane-3-carbonitrile trifluoro acetic acid salt]	4.7 nM				54%	51%	35%	28%	77%	65%	53%
N#C[C@@H]1C[C@@H]2C[C@@H]2N1C(=O)[C@@H](N)C1CC2CCC(C1)N2C(=O)c1cnccn1.O=C(O)C(F)(F)F (stereo partly drawn) [Compound 35, (1S,3S,5S)-2-{(2S)-2-Amino-2-[8-(pyrazine-2-carbonyl)-8-aza-bicyclo[3.2.1]oct-3-yl]-exo-ethanoyl}-2-azabicyclo[3.1.0]hexane-3-carbonitrile trifluoroacetic acid salt]	4.2 nM	54%	42%	33%	46%						
C#C[C@H]1CC[C@@H](C#N)N1C(=O)[C@@H](N)C1CC2CCC(C1)N2C(=O)c1ccnc(F)c1 (stereo partly drawn) [Compound 66, (2S,5R)-1-{(2S)-2-Amino-2-[8-(2-fluoropyridin-4-carbonyl)-8-aza-bicyclo[3.2.1]-oct-3-yl]-exo-ethanoyl}-5-ethynyl-pyrrolidin-2-carbonitrile trifluoro acetic acid salt]	8.24 nM				48%	56%	38%	38%			
